One molecule from patent US20060188573A1, “Composite materials and particles” (priority 2003, published 2006) can be followed below.

For this data set, the system named is blood. Put plainly: Blood compatibility: coagulation. To be noted: 4.0 ml blood added, circulating at 37 degrees C. for 60 minutes in heparin-coated tubes; duplicate. On the procedure: The lipid/polymer hybrid particles have been characterized with respect to coagulation and hemolyse. Briefly, the experiments were carried out as follows:
Coagulation: Solvent/water mixture, with the same ratio used for particle formation, was used as negative control. Other samples were pure polymer, pure lipid, lipid/polymer composite particles and Taxol. Taxol was used as positive control. All experiments were carried out in dublicate.4.0 ml blood were added to each sample before the samples were circulating, at 37 degrees C. for 60 minutes, in tubes with the inside coated with heparin.

As for `CCCCCCCC/C=C\CCCCCCCC(=O)OCC(O)CO` (stereo not shown) [pure lipid, glyceryl-mono-oleate], the coagulation entry is “no coagulation”.
